Assay results published in BigSolDB 2.1.

O=C(/C=C/c1ccc(O)c(O)c1)O[C@H](Cc1ccc(O)c(O)c1)C(=O)O
solubility (mole fraction)
Details | 293.15 K | 298.15 K | 303.15 K | 308.15 K | 313.15 K | 318.15 K
in ethanol | 0.268 | 0.295 | 0.328 | 0.366 | 0.408 | 0.455
in methanol | 0.28 | 0.314 | 0.358 | 0.399 | 0.443 | 0.494
in water | 0.0135 | 0.0151 | 0.0165 | 0.0185 | 0.0209 | 0.0248
